Source: patent US6969702B2, “Compounds and methods for increasing neurogenesis” (priority 2002, dated 2005)
Marks after values point to notes of the source that are not given here. Bridge positions count the residues as written; N and C are the ends. Square brackets hold non-standard residues; d marks the D form. Peptide text beside a SMILES is read from it.

Tests used:
Adult neural stem cells = experiment: Flow cytometry for early neuronal marker Doublecortin; settings: Table 6, 100 nM; for % Doublecortin-positive cells: 4 days; for Fold Induction (Doublecortin-positive cells): vs EGF/FGF
[1] = system: cAMP activation in mouse adult neural stem cells; experiment: cAMP detection (HitHunter EFC Cyclic AMP Chemiluminescence Assay); settings: for Fold Induction cAMP: vs vehicle
[2] = system: mouse adult neural stem cells; experiment: ATP-assay: proliferation (ATP levels) of neurosphere-derived cells
[3] = Table 2, 1 nM (cAMP concentration)
[4] = Table 2, 10 nM (cAMP concentration)
[5] = Table 2, 100 nM (cAMP concentration)
[6] = Table 2, 1000 nM, 4 days, vs vehicle
[7] = Table 1, 100 nM, after 15 minutes

For N=C(N)NCCC[C@H](N)C(=O)N1CCC[C@H]1C(=O)N1CCC[C@H]1C(=O)NCC(=O)N[C@@H](Cc1ccccc1)C(=O)N[C@@H](CO)C(=O)N1CCC[C@H]1C(=O)N[C@@H](Cc1ccccc1)C(=O)O [[Des-Arg9]-Bradykinin], the “% Doublecortin-positive cells” value (Adult neural stem cells) was 4.5%, the “Fold Induction (Doublecortin-positive cells)” value (Adult neural stem cells) was 1.8 fold and the “cAMP (pmol/well)” value [1, 3] was 0.06 ± 0.01 pmol/well. The “Fold Induction cAMP” value ([1]; Table 2, 1 nM) was 1.7*** fold, the “ATP (nM ATP/well)” value ([2]; Table 2, 1 nM, 4 days) was 10.4 ± 1.0 nM ATP/well and the “Fold Induction ATP” value ([2]; Table 2, 1 nM, 4 days, vs vehicle) was 1.2* fold.

For NC(=O)CC[C@@H]1NC(=O)[C@H](Cc2ccccc2)NC(=O)[C@H](Cc2ccc(O)cc2)NC(=O)CCSSC[C@@H](C(=O)N2CCC[C@H]2C(=O)N[C@H](CCCN=C(N)N)C(=O)NCC(N)=O)NC(=O)[C@H](CC(N)=O)NC1=O [DDAVP], the “% Doublecortin-positive cells” value (Adult neural stem cells) was 4.6%, the “Fold Induction (Doublecortin-positive cells)” value (Adult neural stem cells) was 1.8 fold and the “cAMP (pmol/well)” value [1, 4] was 0.27 ± 0.02 pmol/well. The “Fold Induction cAMP” value ([1]; Table 2, 10 nM) was 1.9*** (10 nM) fold, the “ATP (nM ATP/well)” value ([2]; Table 2, 100 nM, 4 days) was 11.5 ± 1.4 nM ATP/well and the “Fold Induction ATP” value ([2]; Table 2, 100 nM, 4 days, vs vehicle) was 1.5* fold.

For CC[C@H](C)[C@H](NC(=O)[C@H](CCC(N)=O)NC(=O)[C@H](Cc1c[nH]cn1)NC(=O)[C@H](C)NC(=O)[C@@H](N)CC(C)C)C(=O)N[C@@H](Cc1ccc(O)cc1)C(=O)N[C@@H](CCC(N)=O)C(=O)N[C@@H](Cc1ccccc1)C(=O)N[C@H](C(=O)N[C@@H](CC(=O)O)C(=O)N[C@@H](CCCCN)C(=O)N[C@@H](CC(=O)O)C(=O)N[C@@H](CCCCN)C(=O)N[C@@H](CC(=O)O)C(=O)N[C@@H](CC(N)=O)C(=O)N[C@H](C(=O)N[C@@H](C)C(=O)N1CCC[C@H]1C(=O)N[C@@H](CCCNC(=N)N)C(=O)N[C@@H](CO)C(=O)N[C@@H](CCCCN)C(=O)N[C@H](C(=O)N[C@@H](CO)C(=O)N1CCC[C@H]1C(=O)N[C@@H](CCC(N)=O)C(=O)NCC(=O)N[C@@H](Cc1ccc(O)cc1)C(N)=O)[C@@H](C)CC)C(C)C)[C@@H](C)O [Adrenomedullin (26-52)] (H-LAHQIYQFTDKDKDNVAPRSKISPQGY-NH2; N-terminus and C-terminus assumed), the “cAMP (pmol/well)” value [1, 3] was 0.33 ± 0.07 pmol/well and the “ATP (nM ATP/well)” value ([2]; Table 2, 1 nM, 4 days) was 11.4 ± 0.7 nM ATP/well.

With CC(C)C[C@H](NC(=O)[C@@H]1CCCN1C(=O)[C@H](CO)NC(=O)[C@H](Cc1ccccc1)NC(=O)CNC(=O)[C@@H]1CCCN1C(=O)[C@@H]1CCCN1C(=O)[C@@H](N)CCCNC(=N)N)C(=O)O [[Des-Arg9, Leu8]-Bradykinin] the “cAMP (pmol/well)” value [1, 3] was 0.09 ± 0.02 pmol/well, the “Fold Induction cAMP” value ([1]; Table 2, 1 nM) was 2.6* (1 nM) fold and the “ATP (nM ATP/well)” value ([2]; Table 2, 10 nM, 4 days) was 9.8 ± 0.4 nM ATP/well. The “Fold Induction ATP” value ([2]; Table 2, 10 nM, 4 days, vs vehicle) was 1.1* fold.

For CSCC[C@H](NC(=O)[C@H](CO)NC(=O)[C@H](Cc1ccc(O)cc1)NC(=O)[C@@H](N)CO)C(=O)N[C@@H](CCC(=O)O)C(=O)N[C@@H](Cc1c[nH]cn1)C(=O)N[C@@H](Cc1ccccc1)C(=O)N[C@@H](CCCNC(=N)N)C(=O)N[C@@H](Cc1c[nH]c2ccccc12)C(=O)NCC(=O)N[C@@H](CCCCN)C(=O)N1CCC[C@H]1C(=O)N[C@H](C(=O)NCC(=O)N[C@@H](CCCCN)C(=O)N[C@@H](CCCCN)C(=O)N[C@@H](CCCNC(=N)N)C(=O)N[C@@H](CCCNC(=N)N)C(=O)N1CCC[C@H]1C(=O)N[C@H](C(=O)N[C@@H](CCCCN)C(=O)N[C@H](C(=O)N[C@@H](Cc1ccc(O)cc1)C(=O)N1CCC[C@H]1C(=O)N[C@@H](CC(N)=O)C(=O)NCC(=O)N[C@@H](C)C(=O)N[C@@H](CCC(=O)O)C(=O)N[C@@H](CC(=O)O)C(=O)N[C@@H](CCC(=O)O)C(=O)N[C@@H](CO)C(=O)N[C@@H](C)C(=O)N[C@@H](CCC(=O)O)C(=O)N[C@@H](C)C(=O)N[C@@H](Cc1ccccc1)C(=O)N1CCC[C@H]1C(=O)N[C@@H](CC(C)C)C(=O)N[C@@H](CCC(=O)O)C(=O)N[C@@H](Cc1ccccc1)C(=O)O)C(C)C)C(C)C)C(C)C [ACTH (Human)] (H-SYSMEHFRWGKPVGKKRRPVKVYPNGAEDESAEAFPLEF-OH; N-terminus and C-terminus assumed), the “cAMP (pmol/well)” value [1, 5] was 0.11 ± 0.02 pmol/well and the “ATP (nM ATP/well)” value ([2]; Table 2, 1000 nM, 4 days) was 15.7 ± 1.3 nM ATP/well.

CC(C)C[C@H](NC(=O)CN(C)C(=O)[C@H](Cc1ccccc1)NC(=O)[C@H](Cc1ccccc1)NC(=O)[C@H](CCC(N)=O)NC(=O)[C@H](CCC(N)=O)NC(=O)[C@@H]1CCCN1C(=O)[C@H](CCCCN)NC(=O)[C@@H]1CCCN1C(=O)[C@@H](N)CCCNC(=N)N)C(=O)N[C@@H](CCS(C)(=O)=O)C(N)=O [[Sar9, Met (0)11]-Substance P] was tested, and the “cAMP (pmol/well)” value [1, 5] was 0.16 ± 0.05 pmol/well and the “ATP (nM ATP/well)” value ([2]; Table 2, 100 nM, 4 days) was 39.7 ± 2.1 nM ATP/well.

In the case of CC(C)C[C@H](NC(=O)[C@H](Cc1ccccc1)NC(=O)CNC(=O)[C@H](NC(=O)[C@@H](N)Cc1ccc(O)cc1)[C@H](C)O)C(=O)N[C@H](C(=O)O)[C@@H](C)O [DTLET], the “% Doublecortin-positive cells” value (Adult neural stem cells) is reported as 4.1% and the “ATP (nM ATP/well)” value ([2]; Table 2, 10 nM, 4 days) is reported as 9.2 ± 0.9 nM ATP/well.

For CCCCC#Cc1nc(N)c2ncn([C@@H]3O[C@H](C(=O)NCC)[C@@H](O)[C@H]3O)c2n1 [HE-NECA], the “cAMP (pmol/well)” value [1, 4] was 3.32 ± 0.28 pmol/well, the “Fold Induction cAMP” value ([1]; Table 2, 10 nM) was 1.8*** (10 nM) fold and the “ATP (nM ATP/well)” value ([2]; Table 2, 1000 nM, 4 days) was 8.2 ± 1.1 nM ATP/well. For the same compound, the “Fold Induction ATP” value [2, 6] was 1.8** fold.

CC[C@H](C)[C@@H]1NC(=O)[C@H](CCCNC(=N)N)NC(=O)[C@H](CC(=O)O)NC(=O)[C@H](CCSC)NC(=O)[C@H](CCCNC(=N)N)NC(=O)CNC(=O)CNC(=O)[C@H](Cc2ccccc2)NC(=O)[C@@H](NC(=O)[C@H](CO)NC(=O)[C@H](CO)NC(=O)[C@H](CCCNC(=N)N)NC(=O)[C@H](CCCNC(=N)N)NC(=O)[C@H](CC(C)C)NC(=O)[C@@H](N)CO)CSSC[C@@H](C(=O)N[C@@H](CC(N)=O)C(=O)N[C@@H](CO)C(=O)N[C@@H](Cc2ccccc2)C(=O)N[C@@H](CCCNC(=N)N)C(=O)N[C@@H](Cc2ccc(O)cc2)C(=O)O)NC(=O)CNC(=O)[C@H](CC(C)C)NC(=O)CNC(=O)[C@H](CO)NC(=O)[C@H](CCC(N)=O)NC(=O)[C@H](C)NC(=O)CNC(=O)[C@H]([C@@H](C)CC)NC(=O)[C@H](CCCNC(=N)N)NC(=O)[C@H](CC(=O)O)NC(=O)[C@H](CCSC)NC(=O)[C@H](CCCNC(=N)N)NC(=O)CNC(=O)CNC(=O)[C@H](Cc2ccccc2)NC(=O)[C@@H](NC(=O)[C@H](CO)NC(=O)[C@H](CO)NC(=O)[C@H](CCCNC(=N)N)NC(=O)[C@H](CCCNC(=N)N)NC(=O)[C@H](CC(C)C)NC(=O)[C@@H](N)CO)CSSC[C@@H](C(=O)N[C@@H](CC(N)=O)C(=O)N[C@@H](CO)C(=O)N[C@@H](Cc2ccccc2)C(=O)N[C@@H](CCCNC(=N)N)C(=O)N[C@@H](Cc2ccc(O)cc2)C(=O)O)NC(=O)CNC(=O)[C@H](CC(C)C)NC(=O)CNC(=O)[C@H](CO)NC(=O)[C@H](CCC(N)=O)NC(=O)[C@H](C)NC(=O)CNC1=O [Beta-ANP] was tested, and the “cAMP (pmol/well)” value [1, 5] was 070 ± 0.04 pmol/well and the “ATP (nM ATP/well)” value ([2]; Table 2, 100 nM, 4 days) was 13.6 ± 2.1 nM ATP/well.

In the case of CSCC[C@H](NC(=O)[C@H](CC(C)C)NC(=O)[C@@H]1CCCN1C(=O)[C@H](Cc1ccc(O)cc1)NC(=O)[C@H](Cc1ccccc1)NC(=O)[C@@H]1CSSC[C@H](NC(=O)[C@@H]2CCCN2C(=O)[C@@H](N)CCCNC(=N)N)C(=O)N2CCC[C@H]2C(=O)N[C@@H](CCC(N)=O)C(=O)N1)C(N)=O [[Cys3,6, Tyr8, Pro9]-Substance P] (H-RPCPQCFYPLM-NH2; disulfide 3-6 (inferred); N-terminus and C-terminus assumed), the “cAMP (pmol/well)” value [1, 5] is reported as 0.29 ± 10 pmol/well and the “ATP (nM ATP/well)” value ([2]; Table 2, 100 nM, 4 days) is reported as 11.2 ± 0.4 nM ATP/well.

With CSCC[C@H](NC(=O)[C@H](CO)NC(=O)[C@H](Cc1ccc(O)cc1)NC(=O)[C@@H](N)CO)C(=O)N[C@@H](CCC(=O)O)C(=O)N[C@@H](Cc1cnc[nH]1)C(=O)N[C@@H](Cc1ccccc1)C(=O)N[C@@H](CCCNC(=N)N)C(=O)N[C@@H](Cc1c[nH]c2ccccc12)C(=O)NCC(=O)N[C@@H](CCCCN)C(=O)N1CCC[C@H]1C(=O)N[C@H](C(=O)NCC(=O)N[C@@H](CCCCN)C(=O)N[C@@H](CCCCN)C(=O)N[C@@H](CCCNC(=N)N)C(=O)N[C@@H](CCCNC(=N)N)C(=O)N1CCC[C@H]1C(=O)N[C@H](C(=O)N[C@@H](CCCCN)C(=O)N[C@H](C(=O)N[C@@H](Cc1ccc(O)cc1)C(=O)N1CCC[C@H]1C(=O)N[C@@H](CC(N)=O)C(=O)NCC(=O)N[C@@H](C)C(=O)N[C@@H](CCC(=O)O)C(=O)N[C@@H](CC(=O)O)C(=O)N[C@@H](CCC(=O)O)C(=O)N[C@@H](CO)C(=O)N[C@@H](C)C(=O)N[C@@H](CCC(=O)O)C(=O)N[C@@H](C)C(=O)N[C@@H](Cc1ccccc1)C(=O)N1CCC[C@H]1C(=O)N[C@@H](CC(C)C)C(=O)N[C@@H](CCC(=O)O)C(=O)N[C@@H](Cc1ccccc1)C(=O)O)C(C)C)C(C)C)C(C)C [ACTH (Human)] (H-SYSMEHFRWGKPVGKKRRPVKVYPNGAEDESAEAFPLEF-OH) the “Fold Induction cAMP” value ([1]; Table 2, 100 nM) was 1.8** (100 nM) fold and the “Fold Induction ATP” value [2, 6] was 1.2* fold.

With CCCC(=O)Nc1ncnc2c1ncn2[C@@H]1O[C@H](CO)[C@@H](O)[C@H]1OC(=O)CCC [N-6,2-O-Dibutyryladenosine, n-6,2-o-dibutyryladenosine] the “cAMP (pmol/well)” value [1, 7] was 0.10 ± 0.01 pmol/well, the “Fold Induction cAMP” value [1, 7] was 4.5** fold and the “ATP (nM ATP/well)” value ([2]; Table 1, 100 nM, 4 days in culture) was 13.9 ± 1.1 nM ATP/well. For the same compound, the “Fold Induction ATP” value ([2]; Table 1, 100 nM, 4 days, vs vehicle treated cells) was 1.5** fold and the “proliferation of neural stem cells” value ([2]; cAMP activators, GPCR-independent) was “increase”.

In the case of C[C@H](NC(=O)[C@@H](Cc1c[nH]c2ccccc12)NC(=O)[C@@H](N)Cc1c[nH]cn1)C(=O)N[C@@H](Cc1c[nH]c2ccccc12)C(=O)N[C@H](Cc1ccccc1)C(=O)N[C@@H](CCCCN)C(N)=O [(D-Trp7.Ala8.D-Phe10)-α-Melanocyte stimulating hormone F: 6-11/GHRP] (H-H[dW]AW[dF]K-NH2; N-terminus and C-terminus assumed), the “% Doublecortin-positive cells” value (Adult neural stem cells) is reported as 5.3%.
